The values below are quoted from earlier work in patent publication US20040126339A1, “Sunscreen composition and methods for manufacturing and using a sunscreen composition” (priority 2002, published 2004).

For this series the following is noted: in vivo.

As for “Poly(vinylpyrrolidone/1-eicosene) [PVPE]”, the dermal toxicity entry is recorded as “no demonstrable dermal toxicity”.
As to “Poly(vinylpyrrolidone/1-hexadecene) [PVPH]”, the dermal toxicity entry is reported as “no demonstrable dermal toxicity”.
